The values that follow come from patent US6395896B2, “Pyridazine derivatives, manufacturing method and related composition” (Shiseido Co., Ltd., priority 1999, dated 2002).

Each structure is given as a SMILES string.

A short description of the assay: Drug stabilization effect (photostabilizer, sunlight exposure). Set-up: key to Sunlight exposure (80 MJ) Appearance: A: No change; B: No almost change; C: Yes change. As to conditions: for Sunlight exposure (80 MJ) Appearance / Sunlight exposure (80 MJ) Residual yield [%]: photostabilizer 0.05, amounts wt %. On the procedure:
Next, the photo stabilization effect and changes in appearance in drug compositions were studied according to the following evaluation formulation.
Each test sample was prepared. Appearance changes of the samples exposed to sunlight (80 MJ) was observed (visual evaluation). Also, residual yield was measured by liquid chromatography.

[1] abbreviates: drug 2-o-α-α-glucopyranosyl-L-ascorbic acid 2.0.
Setting [2] is: drug Dibutylhydroxytoluene 0.01.
[3] abbreviates: drug Dipotassium glycyrrhizinate 0.05.
[4] abbreviates: drug L-ascorbic acid 2-(dl-α-tocopheryl hydrogen phosphate) potassium salt 0.01.
The mark [5] stands for this setting: drug combined with photostabilizer, sunlight 80 MJ, summary of Table 23.

Regarding `Oc1nncc(N2CCOCC2)c1N1CCOCC1` [4,5-Dimorpholino-3-hydroxypyridazine], the “Sunlight exposure (80 MJ) Appearance” value was “A” under setting [1]; “A” under setting [2]; “A” under setting [3]; “A” under setting [4]; “A” (drug Salicylic acid 0.1). The “Sunlight exposure (80 MJ) Residual yield [%]” value under setting [1] turned out to be 99.3%; the “Sunlight exposure (80 MJ) Residual yield [%]” value under setting [2] is 98.8%; the “Sunlight exposure (80 MJ) Residual yield [%]” value under setting [3] came out at 100.3%; the “Sunlight exposure (80 MJ) Residual yield [%]” value under setting [4] amounted to 99.4%; the “Sunlight exposure (80 MJ) Residual yield [%]” value (drug Salicylic acid 0.1) turned out to be 100.3%. For the same compound, the “appearance changes of the composition” value under setting [5] is “small”. For the same compound, the “residual yield of a drug” value under setting [5] is “very high in comparison with other photostabilizers”.
